Structures can show the parent of a compound that is named as a salt.
Key:
[1] = target: rhesus (Macaca Mulatta) H3 receptor (Macaca mulatta, UniProt Q865E1); assay: Rhesus H3 radioligand binding assay ([3H]-Methylhistamine displacement, WGA SPA beads); parameters: species or system rhesus monkey (Macaca Mulatta); settings: Table 2; procedure of Example 42
Description: (Genbank #AY231164). Stably transfected cultures were amplified in tissue culture flasks by standard tissue culture methods and induced to express rhesus H3 by exposure to 500 ng/ml tetracycline (Cellgro) for 24 hours. After induction, cells were dissociated from flasks utilizing Cell Stripper (Cellgro). Cells were centrifuged (1K×g, 5 min) and pellet frozen in an ethanol-dry ice bath to disrupt cell membranes. Frozen cell pellet was re-suspended in 5 mM HEPES (pH 7.4, Invitrogen) at 10 ml/1000 cm2 of harvested cells. The cell suspension was drawn through an 18 gauge needle (2-3×) followed by a 23 gauge needle (2-3×) to further disrupt cell membranes. The cell suspension was centrifuged (40K×g, 30 min). Cell membrane pellet was re-suspended in 5 mM HEPES (pH 7.4, Invitrogen) at a final protein concentration of 10 mg/ml. Rhesus H3 membranes were stored under liquid nitrogen prior to use in [3H]-Methylhistamine and GTPγS radioligand binding assays.
Rhesus H3 radioligand binding assay was performed using rhesus H3 receptor membranes (prepared as described above), [3H]-Methylhistamine (Perkin Elmer) and WGA SPA beads (wheat germ agglutinin scintillation proximity assay) beads (Amersham). The assay was performed in 96-well Opti-Plates (Packard). Each reaction contained 50 μl rhesus H3 membranes (20-30 μg total protein), 50 μl WGA SPA beads (0.1 μg) and 50 μl of 83 Ci/mmol [^3H]-Methylhistamine (final concentration 2 nM) and 50 μl of tested compound. The compounds of this invention and/or vehicle were diluted with binding buffer from 10 mM DMSO stocks. Assay plates were sealed with TopSeal (Perkin Elmer) and mixed on shaker (25° C., 1 hour). Assay plates were read on TopCount scintillation counter (Packard). Results were analyzed by Hill transformation and Ki values were determined by Cheng-Prusoff equation.

MCH receptor = MCH receptor (Homo sapiens, UniProt Q99705); assay: MCH receptor [125J]-ligand binding filtration assay; settings: 10 μM test compound; percent inhibition of ligand binding
Sequence of MCH receptor (Q99705 whole entry): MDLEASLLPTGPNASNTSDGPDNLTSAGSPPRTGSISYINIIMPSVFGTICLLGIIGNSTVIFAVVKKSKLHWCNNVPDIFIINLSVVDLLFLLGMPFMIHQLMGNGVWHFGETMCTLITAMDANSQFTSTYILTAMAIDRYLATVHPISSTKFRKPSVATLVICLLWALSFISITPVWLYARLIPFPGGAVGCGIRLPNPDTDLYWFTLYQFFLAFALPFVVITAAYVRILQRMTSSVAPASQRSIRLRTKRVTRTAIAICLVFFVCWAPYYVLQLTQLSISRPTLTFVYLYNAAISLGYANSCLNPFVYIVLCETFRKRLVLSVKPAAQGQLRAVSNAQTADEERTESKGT
Description: The activity of the compounds of this invention at the MCH receptor site, if any was measured by the procedures as set forth below. • Test Compounds The compounds of this invention were stored in a 96-well microtiter plates (1 μL, 10 mM, 100% DMSO). Each of the test sample was diluted with 249 μL of 100% DMSO (dilution 1:250). […] Blank: Assay buffer containing 0.4% DMSO were transferred to the dilution microtiter plates for blanks • Assay Procedure: The filter plates with […] of 0.5% PEI-solution/well were incubated for 2 hours at room temperature. PEI was removed by vacuum filtration just before pipetting (Univac Polyfiltronic/Whatman). The solution of the compound as prepared above (50 μL), or MCH ([…]) or Puffer/DMSO (positive control) were added to 96-well round bottom microtiter plate. Then 50 μl of [^125J]-ligand solution was added followed by 100 μl of membrane suspension. The plates were closed with the lids, and incubated for 60 min. at 25° C. The samples were transferred to GF/B filter plate. The reaction mixture was removed by vacuum filtration, washed 4× with 300 μL ice-cold washing buffer and the washing solution was removed by vacuum filtration. The rubber layer at the bottom of the plate was then removed and the filters were dried over night at room temperature. 25 μL of scintillation cocktail was added and the plates were sealed and, plate frames were added and incubated for 1 hour at room temperature. The radioactivity was then measured, settings ^125J standard, 30 sec./well.

Sequence of rhesus (Macaca Mulatta) H3 receptor (Q865E1 1-445): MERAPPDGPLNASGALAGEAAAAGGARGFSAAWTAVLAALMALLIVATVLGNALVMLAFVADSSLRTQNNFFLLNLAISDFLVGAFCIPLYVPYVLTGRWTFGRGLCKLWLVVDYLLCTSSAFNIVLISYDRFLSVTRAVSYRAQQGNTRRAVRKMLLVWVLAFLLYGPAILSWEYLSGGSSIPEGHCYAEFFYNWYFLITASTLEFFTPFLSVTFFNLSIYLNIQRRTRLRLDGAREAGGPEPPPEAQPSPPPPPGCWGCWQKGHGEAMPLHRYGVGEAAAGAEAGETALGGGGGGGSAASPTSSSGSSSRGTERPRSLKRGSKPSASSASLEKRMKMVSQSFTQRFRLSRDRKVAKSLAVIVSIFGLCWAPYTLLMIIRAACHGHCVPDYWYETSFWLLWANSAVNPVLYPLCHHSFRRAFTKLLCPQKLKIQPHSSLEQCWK

SMILES	Ki [1] [nM]	inhibition at 10 µM (MCH receptor) [%]
CC1CCCN1C1CCN(c2ccc(NC(=O)C3C(C)(C)C3(C)C)cc2)C1 (stereo not drawn) [Example 25, 2,2,3,3-Tetramethyl-cyclopropanecarboxylic acid [4-(2-methyl-[1,3′]bipyrrolidinyl-1′-yl)-phenyl]-amide trifluoroacetate]	144	15
Cc1cc(NC(=O)C2C(C)(C)C2(C)C)ccc1N1CCC(N2CCCC2C)C1 (stereo not drawn) [Example 27, 2,2,3,3-Tetramethyl-cyclopropanecarboxylic acid [3-methyl-4-(2-methyl-[1,3′]bipyrrolidinyl-1′-yl)-phenyl]-amide trifluoroacetate]	65.5	36
Cc1cc(C(=O)Nc2ccc(N3CCC(N4CCCC4C)C3)cc2)n[nH]1 (stereo not drawn) [Example 31, 5-Methyl-1H-pyrazole-3-carboxylic acid [4-(2-methyl-[1,3′]bipyrrolidinyl-1′-yl)-phenyl]-amide trifluoroacetate]	44.5	30.5
Cc1cc(N2CCC(N3CCCC3C)C2)ccc1NC(=O)c1ccc(-n2ccccc2=O)o1 (stereo not drawn) [Example 32, 5-(2-Oxo-2H-pyridin-1-yl)-furan-2-carboxylic acid [2-methyl-4-(2-methyl-[1,3]bipyrrolidinyl-1′-yl)-phenyl]-amide]	33.3	10.9
Cc1cc(N2CCC(N3CCCC3C)C2)ccc1NC(=O)c1cn[nH]c1 (stereo not drawn) [Example 33, 1H-Pyrazole-4-carboxylic acid [2-methyl-4-(2-methyl-[1,3′]bipyrrolidinyl-1′-yl)-phenyl]-amide trifluoroacetate]	24.7	9.7
Cc1cc(NC(=O)c2cn[nH]c2)ccc1N1CCC(N2CCCC2C)C1 (stereo not drawn) [Example 34, 1H-Pyrazole-4-carboxylic acid [3-methyl-4-(2-methyl-[1,3′]bipyrrolidinyl-1′-yl)-phenyl]-amide trifluoroacetate]	126	16.8
Cc1cc(C(=O)Nc2ccc(N3CCC(N4CCCC4C)C3)cc2C(F)(F)F)n[nH]1 (stereo not drawn) [Example 35, 5-Methyl-1H-pyrazole-3-carboxylic acid [4-(2-methyl-[1,3′]bipyrrolidinyl-1′-yl)-2-trifluoromethyl-phenyl]-amide trifluoroacetate]	307	23.5

These reach a lower Ki [1]. Values come first.

Ki [1] [nM]	inhibition at 10 µM (MCH receptor) [%]	SMILES
15.7	11.4	CC1CCCN1C1CCN(c2ccc(NC(=O)C3C[C@@H]4CC[C@H]3C4)cc2)C1 (stereo partly drawn) [Example 29, (1S,4R)-Bicyclo[2.2.1]heptane-2-carboxylic acid [4-(2-methyl-[1,3′]bipyrrolidinyl-1′-yl)-phenyl]-amide trifluoroacetate]
14.7	1.2	CC1CCCN1C1CCN(c2ccc(NC(=O)C3CC3)c(C(F)(F)F)c2)C1 (stereo not drawn) [Example 30, Cyclopropanecarboxylic acid [4-(2-methyl-[1,3′]bipyrrolidinyl-1′-yl)-2-trifluoromethyl-phenyl]-amide trifluoroacetate]
6.8	8.6	Cc1cc(N2CCC(N3CCCC3C)C2)ccc1NC(=O)C1CCOCC1 (stereo not drawn) [Example 24, Tetrahydro-pyran-4-carboxylic acid [2-methyl-4-(2-methyl[1,3′]bipyrrolidinyl-1′-yl)-phenyl]-amide trifluoroacetate]
4.6	7	Cc1nc(C(=O)Nc2ccc(N3CC[C@H](N4CCC[C@@H]4C)C3)cc2C)co1 [Example 28, 2-Methyl-oxazole-4-carboxylic acid [2-methyl-4-(2(S)-methyl-[1,3′(S)]bipyrrolidinyl-1′-yl)-phenyl]-amide trifluoroacetate]
2.1	9.4	Cc1noc(C)c1C(=O)Nc1ccc(N2CCC(N3CCCC3C)C2)cc1 (stereo not drawn) [Example 26, 3,5-Dimethyl-isoxazole-4-carboxylic acid [4-(2-methyl-[1,3′]bipyrrolidinyl-1′-yl)-phenyl]-amide trifluoroacetate]
